Data: patent US10988523B2, “Modified lipidated Relaxin B chain peptides and their therapeutic use” (Sanofi, priority 2018, dated 2021)
*1 amine or outer side, *2 acyl side, *3 side chain or, on linkers, in order; H or OH if unused. Where a SMILES comes first, the peptide text is derived from it. Side-chain parts run from the residue outwards. [ ]: non-standard residue; d: D form. The star is where a group is joined. PEG12 = NCCOCCOCCOCCOCCOCCOCCOCCOCCOCCOCCOCCOCCC(=O)O; Lys(Me3) = C[N+](C)(C)CCCC[C@H](N)C(=O)O; γGlu = O=C(O)[C@H](CCC(=O)[*:2])N[*:1]; Arg(Me) = CNC(=N)NCCC[C@H](N)C(=O)O; Stearoyl = CCCCCCCCCCCCCCCCCC(=O)*; Palmitoyl = CCCCCCCCCCCCCCCC(=O)*; Myristoyl = CCCCCCCCCCCCCC(=O)*; αMeK = C[C@](N)(CCCCN)C(=O)O; αMeS = C[C@](N)(CO)C(=O)O; Nle = CCCC[C@H](N)C(=O)O; AEEA = NCCOCCOCC(=O)O; Aib = CC(C)(N)C(=O)O

Molecular target: T1, RXFP1 (Homo sapiens, UniProt Q9HBX9)
T1 construct: OVCAR5 cells expressing endogenous RXFP1; endogenous in cells; host or cells: OVCAR5 cells
T1 sequence (Q9HBX9 1-757): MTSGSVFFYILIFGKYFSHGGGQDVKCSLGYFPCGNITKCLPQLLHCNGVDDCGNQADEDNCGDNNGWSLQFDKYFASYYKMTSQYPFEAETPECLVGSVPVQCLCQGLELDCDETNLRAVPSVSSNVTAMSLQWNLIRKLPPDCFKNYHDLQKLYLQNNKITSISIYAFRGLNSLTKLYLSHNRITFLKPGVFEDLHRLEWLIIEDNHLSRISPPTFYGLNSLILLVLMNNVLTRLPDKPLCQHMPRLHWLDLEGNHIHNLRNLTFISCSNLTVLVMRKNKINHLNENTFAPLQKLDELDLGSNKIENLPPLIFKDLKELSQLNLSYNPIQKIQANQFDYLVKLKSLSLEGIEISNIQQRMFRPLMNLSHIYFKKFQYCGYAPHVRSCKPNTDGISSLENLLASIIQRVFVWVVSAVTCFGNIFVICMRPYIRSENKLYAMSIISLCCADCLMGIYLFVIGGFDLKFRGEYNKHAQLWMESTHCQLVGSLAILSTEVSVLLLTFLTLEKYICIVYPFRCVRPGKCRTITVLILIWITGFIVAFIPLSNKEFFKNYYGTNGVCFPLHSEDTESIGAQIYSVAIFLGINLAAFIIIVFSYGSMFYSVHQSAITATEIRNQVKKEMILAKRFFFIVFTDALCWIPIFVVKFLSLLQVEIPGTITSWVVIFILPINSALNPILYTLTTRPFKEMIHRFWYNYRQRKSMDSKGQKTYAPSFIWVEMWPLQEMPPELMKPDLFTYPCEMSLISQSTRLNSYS
Assay: OVCAR5 cAMP assay (HTRF), RXFP1 agonist activity
Type: cell-based
Conditions: for Emax: OVCAR-5, maximal cAMP relative to H2-relaxin maximum (100%), read-out: EMax, OVCAR 5 cells (cAMP); for EC50: OVCAR5 cells, cAMP HTRF, read-out: EC50 (nM), OVCAR 5 cells (cAMP)
Outline: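 OVCAR5 cells (endogenous RXFP1) pretreated 40 min at 37° C with 1 mM IBMX, then exposed to peptides in serum-free medium for 30 min at 37° C. Lysate cAMP read by HTRF; EC50 from variable-slope sigmoidal fit; Emax as % of H2-relaxin maximal cAMP in same run.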

Structure (SMILES)	Emax [%]	EC50 [nM]
CCCCCCCCCCCCCCCCCC(=O)N[C@@H](CCC(=O)NCCCC[C@H](NC(=O)CCOCCOCCOCCOCCOCCOCCOCCOCCOCCOCCOCCOCCNC(=O)[C@H](CCCCN)NC(=O)[C@H](CCCCN)NC(=O)[C@H](CCCNC(=N)N)NC(=O)C(C)(C)NC(=O)[C@H](CO)NC(=O)[C@H](Cc1c[nH]c2ccccc12)NC(=O)[C@@H](NC(=O)[C@H](CO)NC(=O)[C@H](CCCC)NC(=O)CNC(=O)[C@H](CCC(=O)O)NC(=O)C(C)(C)NC(=O)C(C)(C)NC(=O)[C@@H](NC(=O)[C@H](CCC(N)=O)NC(=O)[C@H](C)NC(=O)[C@H](CCCNC(=N)N)NC(=O)[C@@H](NC(=O)[C@H](CCCCN)NC(=O)[C@H](CCC(=O)O)NC(=O)[C@H](CCCNC(=N)N)NC(=O)CNC(=O)[C@H](CCC(=O)O)NC(=O)[C@H](CC(C)C)NC(C)=O)C(C)C)[C@@H](C)CC)[C@@H](C)O)C(N)=O)C(=O)O [compound 22] (Ac-LEGREKVRAQI[Aib][Aib]EG[Nle]STWS[Aib]RKK[PEG12]K([γGlu-Stearoyl])-NH2)	104	–
CCCCCCCCCCCCCCCCCC(=O)N[C@@H](CCC(=O)N[C@@H](CCC(=O)N[C@@H](CCC(=O)NCCCC[C@H](NC(=O)CCOCCOCCOCCOCCOCCOCCOCCOCCOCCOCCOCCOCCNC(=O)[C@H](CCCCNC(C)=O)NC(=O)[C@H](CCCCN)NC(=O)[C@H](CCCNC(=N)N)NC(=O)C(C)(C)NC(=O)[C@](C)(CO)NC(=O)[C@H](Cc1c[nH]c2ccccc12)NC(=O)[C@@H](NC(=O)[C@H](CO)NC(=O)[C@H](CCCC)NC(=O)CNC(=O)[C@H](CCC(=O)O)NC(=O)C(C)(C)NC(=O)C(C)(C)NC(=O)[C@@H](NC(=O)[C@H](CCCCNC(C)=O)NC(=O)[C@H](C)NC(=O)[C@H](CCCNC(=N)N)NC(=O)[C@@H](NC(=O)[C@H](CCCCN)NC(=O)[C@H](CCC(=O)O)NC(=O)[C@H](CCCNC(=N)N)NC(=O)CNC(=O)[C@H](CCC(=O)O)NC(=O)[C@H](CC(C)C)NC(C)=O)C(C)C)[C@@H](C)CC)[C@@H](C)O)C(N)=O)C(=O)O)C(=O)O)C(=O)O [compound 41] (Ac-LEGREKVRAK(Ac)I[Aib][Aib]EG[Nle]STW[αMeS][Aib]RKK(Ac)[PEG12]K([γGlu-γGlu-γGlu-Stearoyl])-NH2)	87	0.09
CCCCCCCCCCCCCCCC(=O)N[C@@H](CCC(=O)NCCOCCOCC(=O)NCCCC[C@H](NC(=O)[C@H](CCCCN)NC(=O)[C@H](CCCNC(=N)N)NC(=O)C(C)(C)NC(=O)[C@H](CO)NC(=O)[C@H](Cc1c[nH]c2ccccc12)NC(=O)[C@@H](NC(=O)[C@H](CO)NC(=O)[C@H](CCCC)NC(=O)CNC(=O)[C@H](CCC(=O)O)NC(=O)C(C)(C)NC(=O)C(C)(C)NC(=O)[C@@H](NC(=O)[C@H](CCC(N)=O)NC(=O)[C@H](C)NC(=O)[C@H](CCCNC(=N)N)NC(=O)[C@@H](NC(=O)[C@H](CCCCN)NC(=O)[C@H](CCC(=O)O)NC(=O)[C@H](CCCNC(=N)N)NC(=O)CNC(=O)[C@H](CCC(=O)O)NC(=O)[C@H](CC(C)C)NC(C)=O)C(C)C)[C@@H](C)CC)[C@@H](C)O)C(N)=O)C(=O)O [compound 53] (Ac-LEGREKVRAQI[Aib][Aib]EG[Nle]STWS[Aib]RKK([AEEA-γGlu-Palmitoyl])-NH2)	97	–

Further lines, results first:

Emax [%]	EC50 [nM]	Structure (SMILES)
95	0.56	CCCCCCCCCCCCCC(=O)N[C@@H](CCC(=O)N[C@@H](CCC(=O)N[C@@H](CCC(=O)N[C@@H](CCC(=O)NCCCC[C@H](NC(=O)COCCOCCNC(=O)COCCOCCNC(=O)COCCOCCNC(=O)COCCOCCNC(=O)[C@H](CCCCNC(C)=O)NC(=O)[C@H](C)NC(=O)[C@H](CCCNC(=N)N)NC(=O)[C@](C)(CCCCN)NC(=O)[C@H](CO)NC(=O)[C@H](Cc1ccccc1)NC(=O)[C@@H](NC(=O)[C@H](CO)NC(=O)[C@H](CCCC)NC(=O)CNC(=O)[C@H](CCC(=O)O)NC(=O)C(C)(C)NC(=O)C(C)(C)NC(=O)[C@@H](NC(=O)[C@H](CCCCNC(C)=O)NC(=O)[C@H](C)NC(=O)[C@H](CCCNC(=N)N)NC(=O)[C@@H](NC(=O)[C@H](CCCCN)NC(=O)[C@H](CCC(=O)O)NC(=O)[C@H](CCCNC(=N)N)NC(=O)CNC(=O)[C@H](CCC(=O)O)NC(=O)[C@H](CC(C)C)NC(C)=O)C(C)C)[C@@H](C)CC)[C@@H](C)O)C(N)=O)C(=O)O)C(=O)O)C(=O)O)C(=O)O [compound 172] (Ac-LEGREKVRAK(Ac)I[Aib][Aib]EG[Nle]STFS[αMeK]RAK(Ac)[AEEA][AEEA][AEEA][AEEA]K([γGlu-γGlu-γGlu-γGlu-Myristoyl])-NH2)
89	–	CCCCCCCCCCCCCCCCCC(=O)N[C@@H](CCC(=O)N[C@@H](CCC(=O)N[C@@H](CCC(=O)NCCOCCOCC(=O)NCCOCCOCC(=O)NCCOCCOCC(=O)NCCCC[C@H](NC(=O)[C@H](CCCCN)NC(=O)[C@H](CCCCN)NC(=O)[C@H](CCCNC(=N)N)NC(=O)C(C)(C)NC(=O)[C@@H](NC(=O)[C@H](Cc1c[nH]c2ccccc12)NC(=O)[C@@H](NC(=O)[C@H](CO)NC(=O)[C@H](CCCC)NC(=O)CNC(=O)[C@H](CCC(=O)O)NC(=O)C(C)(C)NC(=O)C(C)(C)NC(=O)[C@@H](NC(=O)[C@H](CCC(N)=O)NC(=O)[C@H](C)NC(=O)[C@H](CCCNC(=N)N)NC(=O)[C@@H](NC(=O)[C@H](CCCCN)NC(=O)[C@H](CCC(=O)O)NC(=O)[C@H](CCCNC(=N)N)NC(=O)CNC(=O)[C@H](CCC(=O)O)NC(=O)[C@H](CC(C)C)NC(C)=O)C(C)C)[C@@H](C)CC)[C@@H](C)O)[C@@H](C)O)C(N)=O)C(=O)O)C(=O)O)C(=O)O [compound 76] (Ac-LEGREKVRAQI[Aib][Aib]EG[Nle]STWT[Aib]RKKK([AEEA-AEEA-AEEA-γGlu-γGlu-γGlu-Stearoyl])-NH2)
91	–	CCCCCCCCCCCCCCCCCC(=O)N[C@@H](CCC(=O)N[C@@H](CCC(=O)N[C@@H](CCC(=O)N[C@@H](CCC(=O)NCCOCCOCC(=O)NCCOCCOCC(=O)NCCOCCOCC(=O)NCCCC[C@H](NC(=O)[C@H](CCCCNC(C)=O)NC(=O)[C@H](CCCC[N+](C)(C)C)NC(=O)[C@H](CCCNC(=N)NC)NC(=O)[C@](C)(CCCCN)NC(=O)[C@H](CO)NC(=O)[C@H](Cc1c[nH]c2ccccc12)NC(=O)[C@@H](NC(=O)[C@H](CO)NC(=O)[C@H](CCCC)NC(=O)CNC(=O)[C@H](CCC(=O)O)NC(=O)C(C)(C)NC(=O)C(C)(C)NC(=O)[C@@H](NC(=O)[C@H](CCCCNC(C)=O)NC(=O)[C@H](C)NC(=O)[C@H](CCCNC(=N)N)NC(=O)[C@@H](NC(=O)[C@H](CCCCN)NC(=O)[C@H](CCC(=O)O)NC(=O)[C@H](CCCNC(=N)N)NC(=O)CNC(=O)[C@H](CCC(=O)O)NC(=O)[C@H](CC(C)C)NC(C)=O)C(C)C)[C@@H](C)CC)[C@@H](C)O)C(N)=O)C(=O)O)C(=O)O)C(=O)O)C(=O)O [compound 138] (Ac-LEGREKVRAK(Ac)I[Aib][Aib]EG[Nle]STWS[αMeK][Arg(Me)][Lys(Me3)]K(Ac)K([AEEA-AEEA-AEEA-γGlu-γGlu-γGlu-γGlu-Stearoyl])-NH2)
